{
  "source": "paper PMC12090182",
  "about": "“Repurposing of the RIPK1-Selective Benzo[1,4]oxazepin-4-one Scaffold for the Development of a Type III LIMK1/2 Inhibitor” (ACS Chemical Biology, 2025)",
  "assay_in_all_cases": "scanMAX KINOMEscan (Eurofins)",
  "assay_type_in_all_cases": "binding",
  "key": {"[1]": {"biological_target": "ABL1-phosphorylated (Homo sapiens, UniProt P00519)", "sequence (P00519 whole entry)": "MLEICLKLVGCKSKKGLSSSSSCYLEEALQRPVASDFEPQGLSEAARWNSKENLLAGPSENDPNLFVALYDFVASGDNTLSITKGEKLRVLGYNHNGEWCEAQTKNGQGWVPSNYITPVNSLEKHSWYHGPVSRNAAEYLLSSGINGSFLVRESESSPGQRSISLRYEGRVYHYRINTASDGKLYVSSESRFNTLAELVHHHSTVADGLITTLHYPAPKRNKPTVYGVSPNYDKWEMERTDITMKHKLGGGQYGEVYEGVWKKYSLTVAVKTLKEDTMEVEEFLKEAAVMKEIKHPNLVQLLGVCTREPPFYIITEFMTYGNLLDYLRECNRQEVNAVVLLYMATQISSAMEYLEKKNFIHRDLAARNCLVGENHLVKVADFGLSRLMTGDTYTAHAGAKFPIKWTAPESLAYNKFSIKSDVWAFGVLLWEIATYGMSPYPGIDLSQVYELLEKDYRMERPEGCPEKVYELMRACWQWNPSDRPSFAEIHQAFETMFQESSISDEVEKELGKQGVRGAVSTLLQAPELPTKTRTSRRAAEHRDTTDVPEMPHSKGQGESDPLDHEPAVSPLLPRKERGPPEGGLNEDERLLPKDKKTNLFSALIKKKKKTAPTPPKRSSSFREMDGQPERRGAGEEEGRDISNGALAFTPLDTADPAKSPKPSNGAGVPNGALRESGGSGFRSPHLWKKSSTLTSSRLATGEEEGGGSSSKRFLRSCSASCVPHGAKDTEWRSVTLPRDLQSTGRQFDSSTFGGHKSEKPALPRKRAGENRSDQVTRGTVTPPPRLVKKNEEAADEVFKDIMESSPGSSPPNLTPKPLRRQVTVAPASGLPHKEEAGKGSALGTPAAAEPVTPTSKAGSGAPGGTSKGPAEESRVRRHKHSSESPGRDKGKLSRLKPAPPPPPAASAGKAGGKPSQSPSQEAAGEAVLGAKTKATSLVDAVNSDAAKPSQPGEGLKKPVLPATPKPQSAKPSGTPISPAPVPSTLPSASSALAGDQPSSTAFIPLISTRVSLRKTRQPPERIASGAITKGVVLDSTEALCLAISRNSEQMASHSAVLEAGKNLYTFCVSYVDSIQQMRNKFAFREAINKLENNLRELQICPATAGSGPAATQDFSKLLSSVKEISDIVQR", "details": "read-out: Percent Control", "source_text": "(§1) Supplement cb5c00097_si_002.xlsx, sheet \"Table S6 (Eurofins Selectivity)\" | column: Percent Control"}, "[2]": {"biological_target": "ABL2 (Homo sapiens, UniProt P42684)", "details": "read-out: Percent Control", "source_text": "as §1"}, "[3]": {"biological_target": "BRK (Homo sapiens, UniProt Q13882)", "details": "1000 nM, read-out: Percent Control", "source_text": "as §1"}, "[4]": {"biological_target": "CAMK4 (Homo sapiens, UniProt Q16566)", "details": "1000 nM, read-out: Percent Control", "source_text": "as §1"}, "[5]": {"biological_target": "CAMKK1 (Homo sapiens, UniProt Q8N5S9)", "details": "1000 nM, read-out: Percent Control", "source_text": "as §1"}, "[6]": {"biological_target": "CASK (Homo sapiens, UniProt O14936)", "sequence (O14936 whole entry)": "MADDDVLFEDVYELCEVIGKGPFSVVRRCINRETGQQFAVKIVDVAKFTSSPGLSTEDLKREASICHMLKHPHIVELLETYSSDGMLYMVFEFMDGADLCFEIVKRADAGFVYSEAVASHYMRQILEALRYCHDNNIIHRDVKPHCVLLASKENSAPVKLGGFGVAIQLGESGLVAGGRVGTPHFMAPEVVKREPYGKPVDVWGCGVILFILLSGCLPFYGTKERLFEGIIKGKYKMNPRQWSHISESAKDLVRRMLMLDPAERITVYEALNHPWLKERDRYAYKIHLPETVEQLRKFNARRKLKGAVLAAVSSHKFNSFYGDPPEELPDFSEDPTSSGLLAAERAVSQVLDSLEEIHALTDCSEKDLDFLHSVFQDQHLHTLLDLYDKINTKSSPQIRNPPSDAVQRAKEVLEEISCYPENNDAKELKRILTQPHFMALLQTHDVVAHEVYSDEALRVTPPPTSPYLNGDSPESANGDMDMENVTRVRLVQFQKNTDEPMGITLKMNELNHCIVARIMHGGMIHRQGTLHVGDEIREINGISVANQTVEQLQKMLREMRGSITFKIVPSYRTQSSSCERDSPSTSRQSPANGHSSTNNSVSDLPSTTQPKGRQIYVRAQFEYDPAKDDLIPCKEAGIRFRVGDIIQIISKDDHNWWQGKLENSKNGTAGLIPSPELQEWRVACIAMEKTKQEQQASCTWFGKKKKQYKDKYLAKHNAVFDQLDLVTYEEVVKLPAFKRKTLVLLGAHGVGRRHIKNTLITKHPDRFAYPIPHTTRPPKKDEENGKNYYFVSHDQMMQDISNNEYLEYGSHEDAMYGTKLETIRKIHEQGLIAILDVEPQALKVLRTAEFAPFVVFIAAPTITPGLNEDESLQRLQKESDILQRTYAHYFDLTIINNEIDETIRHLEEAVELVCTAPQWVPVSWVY", "details": "read-out: Percent Control", "source_text": "as §1"}, "[7]": {"biological_target": "CDK3 (Homo sapiens, UniProt Q00526)", "details": "1000 nM, read-out: Percent Control", "source_text": "as §1"}, "[8]": {"biological_target": "CSNK1G2 (Homo sapiens, UniProt P78368)", "sequence (P78368 whole entry)": "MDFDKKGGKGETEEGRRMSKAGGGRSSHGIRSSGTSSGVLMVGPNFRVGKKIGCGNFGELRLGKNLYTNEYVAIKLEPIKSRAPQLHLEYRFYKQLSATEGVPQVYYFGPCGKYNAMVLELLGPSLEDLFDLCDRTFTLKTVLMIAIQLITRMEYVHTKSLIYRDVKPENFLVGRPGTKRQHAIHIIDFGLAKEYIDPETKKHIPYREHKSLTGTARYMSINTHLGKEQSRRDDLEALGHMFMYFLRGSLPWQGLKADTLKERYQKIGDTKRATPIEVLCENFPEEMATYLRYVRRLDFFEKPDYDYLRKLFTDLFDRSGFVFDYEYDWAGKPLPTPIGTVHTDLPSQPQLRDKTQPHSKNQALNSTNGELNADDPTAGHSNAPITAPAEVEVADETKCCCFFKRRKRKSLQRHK", "details": "read-out: Percent Control", "source_text": "as §1"}, "[9]": {"biological_target": "DLK (Homo sapiens, UniProt Q12852)", "details": "1000 nM, read-out: Percent Control", "source_text": "as §1"}, "[10]": {"biological_target": "ERK1 (Homo sapiens, UniProt P27361)", "sequence (P27361 whole entry)": "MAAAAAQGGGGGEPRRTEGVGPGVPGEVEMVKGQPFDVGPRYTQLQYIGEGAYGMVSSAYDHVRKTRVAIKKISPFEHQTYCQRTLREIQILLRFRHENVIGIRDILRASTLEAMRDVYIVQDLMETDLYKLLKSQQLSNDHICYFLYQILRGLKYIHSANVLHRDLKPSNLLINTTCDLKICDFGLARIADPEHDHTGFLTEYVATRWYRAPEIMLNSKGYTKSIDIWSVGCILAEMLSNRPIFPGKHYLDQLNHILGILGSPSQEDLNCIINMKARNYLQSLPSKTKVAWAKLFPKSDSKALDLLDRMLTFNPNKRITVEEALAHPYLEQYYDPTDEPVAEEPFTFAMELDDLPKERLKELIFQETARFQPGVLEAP", "details": "read-out: Percent Control", "source_text": "as §1"}, "[11]": {"biological_target": "ERK2 (Homo sapiens, UniProt P28482)", "details": "1000 nM, read-out: Percent Control", "source_text": "as §1"}, "[12]": {"biological_target": "FGFR1 (Homo sapiens, UniProt P11362)", "sequence (P11362 22-822)": "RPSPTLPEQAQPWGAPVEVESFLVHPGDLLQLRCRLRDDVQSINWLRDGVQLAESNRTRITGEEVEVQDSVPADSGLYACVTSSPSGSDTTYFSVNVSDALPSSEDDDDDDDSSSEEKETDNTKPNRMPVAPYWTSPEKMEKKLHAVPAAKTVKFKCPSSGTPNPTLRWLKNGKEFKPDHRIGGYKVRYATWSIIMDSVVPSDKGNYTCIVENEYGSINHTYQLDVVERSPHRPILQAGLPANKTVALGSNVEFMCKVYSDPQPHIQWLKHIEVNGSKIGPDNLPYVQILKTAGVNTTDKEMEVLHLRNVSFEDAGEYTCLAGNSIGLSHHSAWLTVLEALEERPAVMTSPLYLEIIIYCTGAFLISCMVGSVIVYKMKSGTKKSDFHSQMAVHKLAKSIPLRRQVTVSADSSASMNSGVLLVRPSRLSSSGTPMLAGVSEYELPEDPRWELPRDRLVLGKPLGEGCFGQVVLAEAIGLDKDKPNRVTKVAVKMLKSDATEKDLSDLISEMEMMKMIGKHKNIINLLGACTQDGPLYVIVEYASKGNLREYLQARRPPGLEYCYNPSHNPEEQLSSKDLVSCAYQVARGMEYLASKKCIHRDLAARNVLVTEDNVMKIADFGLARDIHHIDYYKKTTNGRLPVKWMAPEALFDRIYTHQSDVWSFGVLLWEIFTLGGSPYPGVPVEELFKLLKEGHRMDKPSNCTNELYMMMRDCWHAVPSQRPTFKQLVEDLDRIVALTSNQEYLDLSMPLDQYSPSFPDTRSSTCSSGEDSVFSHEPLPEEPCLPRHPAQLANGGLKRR", "details": "read-out: Percent Control", "source_text": "as §1"}, "[13]": {"biological_target": "FLT1 (Homo sapiens, UniProt P17948)", "details": "1000 nM, read-out: Percent Control", "source_text": "as §1"}, "[14]": {"biological_target": "GRK2 (Homo sapiens, UniProt P25098)", "sequence (P25098 whole entry)": "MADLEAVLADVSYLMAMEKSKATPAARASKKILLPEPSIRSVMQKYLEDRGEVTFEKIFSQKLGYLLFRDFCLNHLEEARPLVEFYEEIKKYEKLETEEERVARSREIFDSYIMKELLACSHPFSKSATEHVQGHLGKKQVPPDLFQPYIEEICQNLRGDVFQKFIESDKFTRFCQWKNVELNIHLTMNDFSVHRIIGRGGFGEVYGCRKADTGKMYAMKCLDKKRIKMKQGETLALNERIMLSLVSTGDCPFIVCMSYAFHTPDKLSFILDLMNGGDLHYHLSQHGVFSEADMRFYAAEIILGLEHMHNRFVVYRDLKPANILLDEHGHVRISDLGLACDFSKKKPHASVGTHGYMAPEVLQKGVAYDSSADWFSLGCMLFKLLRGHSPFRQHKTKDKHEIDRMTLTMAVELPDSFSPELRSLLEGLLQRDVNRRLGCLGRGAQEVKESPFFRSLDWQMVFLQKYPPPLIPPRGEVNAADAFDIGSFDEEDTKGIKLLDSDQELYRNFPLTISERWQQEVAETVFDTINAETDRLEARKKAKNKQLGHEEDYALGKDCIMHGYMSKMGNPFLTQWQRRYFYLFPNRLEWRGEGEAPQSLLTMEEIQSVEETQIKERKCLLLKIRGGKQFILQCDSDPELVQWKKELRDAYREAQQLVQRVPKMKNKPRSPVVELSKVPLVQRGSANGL", "details": "read-out: Percent Control", "source_text": "as §1"}, "[15]": {"biological_target": "GSK3B (Homo sapiens, UniProt P49841)", "sequence (P49841 whole entry)": "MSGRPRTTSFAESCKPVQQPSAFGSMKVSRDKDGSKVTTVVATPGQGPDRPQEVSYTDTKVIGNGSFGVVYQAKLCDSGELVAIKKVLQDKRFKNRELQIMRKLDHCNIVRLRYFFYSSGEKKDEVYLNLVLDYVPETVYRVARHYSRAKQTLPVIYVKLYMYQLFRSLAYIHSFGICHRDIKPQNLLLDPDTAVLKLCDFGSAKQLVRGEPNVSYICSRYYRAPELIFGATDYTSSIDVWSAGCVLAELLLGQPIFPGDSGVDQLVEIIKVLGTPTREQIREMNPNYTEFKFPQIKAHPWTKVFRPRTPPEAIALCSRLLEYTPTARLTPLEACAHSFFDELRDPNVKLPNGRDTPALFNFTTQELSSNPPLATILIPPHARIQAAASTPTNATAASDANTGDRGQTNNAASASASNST", "details": "read-out: Percent Control", "source_text": "as §1"}, "[16]": {"biological_target": "HIPK4 (Homo sapiens, UniProt Q8NE63)", "details": "1000 nM, read-out: Percent Control", "source_text": "as §1"}, "[17]": {"biological_target": "ICK (Homo sapiens, UniProt Q9UPZ9)", "details": "1000 nM, read-out: Percent Control", "source_text": "as §1"}, "[18]": {"biological_target": "JAK3(JH1domain-catalytic) (Homo sapiens, UniProt P52333)", "details": "1000 nM, read-out: Percent Control", "source_text": "as §1"}, "[19]": {"biological_target": "JNK2 (Homo sapiens, UniProt P45984)", "details": "1000 nM, read-out: Percent Control", "source_text": "as §1"}, "[20]": {"biological_target": "MARK4 (Homo sapiens, UniProt Q96L34)", "details": "compound concentration 100 nM; Entrez MARK4; read-out: Percent Control", "source_text": "as §1"}, "[21]": {"biological_target": "MAST1 (Homo sapiens, UniProt Q9Y2H9)", "details": "1000 nM, read-out: Percent Control", "source_text": "as §1"}, "[22]": {"biological_target": "MEK3 (Homo sapiens, UniProt P46734)", "details": "1000 nM, read-out: Percent Control", "source_text": "as §1"}, "[23]": {"biological_target": "NEK1 (Homo sapiens, UniProt Q96PY6)", "details": "compound concentration 100 nM; Entrez NEK1; read-out: Percent Control", "source_text": "as §1"}, "[24]": {"biological_target": "PFCDPK1(P.falciparum) (Plasmodium falciparum, UniProt P62344)", "details": "compound concentration 100 nM; Entrez CDPK1; read-out: Percent Control", "source_text": "as §1"}, "[25]": {"biological_target": "PIK3CB (Homo sapiens, UniProt P42338)", "details": "1000 nM, read-out: Percent Control", "source_text": "as §1"}, "[26]": {"biological_target": "PIP5K1A (Homo sapiens, UniProt Q99755)", "details": "1000 nM, read-out: Percent Control", "source_text": "as §1"}, "[27]": {"biological_target": "PYK2 (Homo sapiens, UniProt Q14289)", "details": "1000 nM, read-out: Percent Control", "source_text": "as §1"}, "[28]": {"biological_target": "ROS1 (Homo sapiens, UniProt P08922)", "details": "1000 nM, read-out: Percent Control", "source_text": "as §1"}, "[29]": {"biological_target": "RSK3(Kin.Dom.2-C-terminal) (Homo sapiens, UniProt Q15349)", "sequence (Q15349 415-672)": "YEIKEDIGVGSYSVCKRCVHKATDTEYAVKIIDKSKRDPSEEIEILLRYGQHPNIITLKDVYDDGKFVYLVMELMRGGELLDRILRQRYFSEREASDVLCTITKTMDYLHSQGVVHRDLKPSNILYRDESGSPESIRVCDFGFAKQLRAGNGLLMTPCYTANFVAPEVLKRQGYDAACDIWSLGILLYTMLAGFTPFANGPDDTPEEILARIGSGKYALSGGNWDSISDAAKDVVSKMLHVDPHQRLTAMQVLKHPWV", "details": "compound concentration 100 nM; Entrez RPS6KA2; read-out: Percent Control", "source_text": "as §1"}, "[30]": {"biological_target": "SRC (Homo sapiens, UniProt P12931)", "details": "compound concentration 100 nM; Entrez SRC; read-out: Percent Control", "source_text": "as §1"}, "[31]": {"biological_target": "SRMS (Homo sapiens, UniProt Q9H3Y6)", "details": "compound concentration 100 nM; Entrez SRMS; read-out: Percent Control", "source_text": "as §1"}, "[32]": {"biological_target": "STK16 (Homo sapiens, UniProt O75716)", "details": "compound concentration 100 nM; Entrez STK16; read-out: Percent Control", "source_text": "as §1"}, "[33]": {"biological_target": "SYK (Homo sapiens, UniProt P43405)", "details": "1000 nM, read-out: Percent Control", "source_text": "as §1"}, "[34]": {"biological_target": "TBK1 (Homo sapiens, UniProt Q9UHD2)", "details": "1000 nM, read-out: Percent Control", "source_text": "as §1"}, "[35]": {"biological_target": "TGFBR1 (Homo sapiens, UniProt P36897)", "details": "compound concentration 100 nM; Entrez TGFBR1; read-out: Percent Control", "source_text": "as §1"}, "[36]": {"biological_target": "VRK2 (Homo sapiens, UniProt Q86Y07)", "details": "compound concentration 100 nM; Entrez VRK2; read-out: Percent Control", "source_text": "as §1"}},
  "data": [
    {"smiles": "CN1C(=O)[C@@H](N2CCc3c(nn(Cc4ccccc4)c3C(N)=O)C2=O)COc2cc(Cl)ccc21", "note": "[Compound 10, (S)-2-benzyl-6-(8-chloro-5-methyl-4-oxo-2,3,4,5-tetrahydrobenzo[b][1,4]oxazepin-3-yl)-7-oxo-4,5,6,7-tetrahydro-2H-pyrazolo[3,4-c]pyridine-3-carboxamide]", "values": [
      {"measurement": "remaining binding at 1 µM", "setting": "[1]; 1000 nM", "value": 100, "unit": "%"},
      {"measurement": "remaining binding at 0.1 µM", "setting": "[1]; compound concentration 100 nM, Entrez ABL1", "value": 97, "unit": "%"},
      {"measurement": "remaining binding at 1 µM", "setting": "[2]; 1000 nM", "value": 100, "unit": "%"},
      {"measurement": "remaining binding at 0.1 µM", "setting": "[2]; compound concentration 100 nM, Entrez ABL2", "value": 100, "unit": "%"},
      {"measurement": "remaining binding at 1 µM", "setting": "[3]", "value": 87, "unit": "%"},
      {"measurement": "remaining binding at 1 µM", "setting": "[4]", "value": 95, "unit": "%"},
      {"measurement": "remaining binding at 1 µM", "setting": "[5]", "value": 74, "unit": "%"},
      {"measurement": "remaining binding at 1 µM", "setting": "[6]; 1000 nM", "value": 100, "unit": "%"},
      {"measurement": "remaining binding at 0.1 µM", "setting": "[6]; compound concentration 100 nM, Entrez CASK", "value": 80, "unit": "%"},
      {"measurement": "remaining binding at 1 µM", "setting": "[7]", "value": 87, "unit": "%"},
      {"measurement": "remaining binding at 1 µM", "setting": "[8]; 1000 nM", "value": 100, "unit": "%"},
      {"measurement": "remaining binding at 0.1 µM", "setting": "[8]; compound concentration 100 nM, Entrez CSNK1G2", "value": 91, "unit": "%"},
      {"measurement": "remaining binding at 1 µM", "setting": "[9]", "value": 81, "unit": "%"},
      {"measurement": "remaining binding at 1 µM", "setting": "[10]; 1000 nM", "value": 100, "unit": "%"},
      {"measurement": "remaining binding at 0.1 µM", "setting": "[10]; compound concentration 100 nM, Entrez MAPK3", "value": 93, "unit": "%"},
      {"measurement": "remaining binding at 1 µM", "setting": "[11]", "value": 95, "unit": "%"},
      {"measurement": "remaining binding at 1 µM", "setting": "[12]; 1000 nM", "value": 100, "unit": "%"},
      {"measurement": "remaining binding at 0.1 µM", "setting": "[12]; compound concentration 100 nM, Entrez FGFR1", "value": 88, "unit": "%"},
      {"measurement": "remaining binding at 1 µM", "setting": "[13]", "value": 86, "unit": "%"},
      {"measurement": "remaining binding at 1 µM", "setting": "[14]; 1000 nM", "value": 99, "unit": "%"},
      {"measurement": "remaining binding at 0.1 µM", "setting": "[14]; compound concentration 100 nM, Entrez ADRBK1", "value": 91, "unit": "%"},
      {"measurement": "remaining binding at 1 µM", "setting": "[15]; 1000 nM", "value": 100, "unit": "%"},
      {"measurement": "remaining binding at 0.1 µM", "setting": "[15]; compound concentration 100 nM, Entrez GSK3B", "value": 100, "unit": "%"},
      {"measurement": "remaining binding at 1 µM", "setting": "[16]", "value": 87, "unit": "%"},
      {"measurement": "remaining binding at 1 µM", "setting": "[17]", "value": 85, "unit": "%"},
      {"measurement": "remaining binding at 1 µM", "setting": "[18]", "value": 85, "unit": "%"},
      {"measurement": "remaining binding at 1 µM", "setting": "[19]", "value": 89, "unit": "%"},
      {"measurement": "remaining binding at 0.1 µM", "setting": "[20]", "value": 76, "unit": "%"},
      {"measurement": "remaining binding at 1 µM", "setting": "[21]", "value": 75, "unit": "%"},
      {"measurement": "remaining binding at 1 µM", "setting": "[22]", "value": 97, "unit": "%"},
      {"measurement": "remaining binding at 0.1 µM", "setting": "[23]", "value": 76, "unit": "%"},
      {"measurement": "remaining binding at 0.1 µM", "setting": "[24]", "value": 97, "unit": "%"},
      {"measurement": "remaining binding at 1 µM", "setting": "[25]", "value": 88, "unit": "%"},
      {"measurement": "remaining binding at 1 µM", "setting": "[26]", "value": 69, "unit": "%"},
      {"measurement": "remaining binding at 1 µM", "setting": "[27]", "value": 82, "unit": "%"},
      {"measurement": "remaining binding at 1 µM", "setting": "[28]", "value": 88, "unit": "%"},
      {"measurement": "remaining binding at 0.1 µM", "setting": "[29]", "value": 100, "unit": "%"},
      {"measurement": "remaining binding at 0.1 µM", "setting": "[30]", "value": 85, "unit": "%"},
      {"measurement": "remaining binding at 0.1 µM", "setting": "[31]", "value": 90, "unit": "%"},
      {"measurement": "remaining binding at 0.1 µM", "setting": "[32]", "value": 80, "unit": "%"},
      {"measurement": "remaining binding at 1 µM", "setting": "[33]", "value": 95, "unit": "%"},
      {"measurement": "remaining binding at 1 µM", "setting": "[34]", "value": 94, "unit": "%"},
      {"measurement": "remaining binding at 0.1 µM", "setting": "[35]", "value": 100, "unit": "%"},
      {"measurement": "remaining binding at 0.1 µM", "setting": "[36]", "value": 77, "unit": "%"}
    ]}
  ]
}
